The values below come from patent US20060046981A1, “Anti-nonmelanoma carcinoma compounds, compositions, and methods of use thereof” (GILEAD SCIENCES, INC., priority 2003, published 2006).

In assay [1] the test system is SiHa cells. The experiment in a line: Antiproliferation assay (7 days, Sulforhodamine B) in SiHa cells. The format is cell-based, human. As to conditions: for Selectivity (HEL/SiHa): HEL EC50 divided by SiHa EC50; for Selectivity for SiHa cells compared with HEL cells: Example 80, also versus PHK keratinocytes, fold. The procedure: Antiproliferation assays measure effect of compounds on proliferation of cultured cells. Cells are cultured for 7 days in the presence of various concentrations of compounds. On the 7th day, cells are stained with dye, and intensity of staining (proportional to cell number) is measured by spectrophotometer.
(§1) Cells were detached from culture flasks using trypsin, counted, and plated in 96-well culture plates (250-1000 cells per well, depending on cell type). On the next day (defined as day 0), after cells attached to the bottom of plates, 5-fold serial dilutions of compounds were added in duplicate. No compound and 10 μM colchicine (cell division inhibitor) was added to control wells, which would represent 100% proliferation and 0% proliferation, respectively.
(§2) Seven days after addition of compounds, culture plates were treated with 10% trichloroacetic acid at 4° C. for 1 hr, then washed with water. This procedure allows cell-derived proteins to bind to the bottom surface of plates. Proteins were stained with 0.4% Sulforhodamine B in 1% acetic acid for 10 minutes, followed by extensive washing with 1% acetic acid. Remaining dye bound to the bottom of plates was dissolved in 10 mM Trizma base. This generated purple color that was quantified by measuring the absorbance at 510 nm wavelength, using spectrophotometer.
(§3) Cells were detached from culture flasks using trypsin, counted, and plated in 96-well culture plates ([…], depending on cell type). On the next day (defined as day 0), 5-fold serial dilutions of compounds were added in duplicate. Seven days after addition of compounds, culture plates were treated with 10% trichloroacetic acid at 4° C. for 1 hr and washed with water. This procedure allows cellular proteins to bind to the bottom surface of plates. Proteins were stained with 0.4% Sulforhodamine B in 1% acetic acid for 10 minutes, followed by extensive washing with 1% acetic acid. Remaining dye bound to the bottom of plates was solubilized in 10 mM Trizma base, generating purple color. Intensity of the color (proportional to cell number) was quantified by measuring the absorbance at 510 nm wavelength, using spectrophotometer. […] GraphPad Prism version 4.00 for Windows (GraphPad Software, San Diego Calif. USA) was used for the curve fitting and EC50 calculation.

For assay [2], the system named is HEL cells. The assay is described as follows: Antiproliferation assay (7 days, Sulforhodamine B) in HEL fibroblasts. The format is cell-based, human. To be noted: read-out: Antiproliferation EC50 HEL lung fibroblast. Here is the method: as §1, §2, §3
The test system of assay [3] is SCC-4 cells. The assay is described as follows: Antiproliferation assay in SCC-4 cells. The format is cell-based. As to conditions: Homo sapiens, Table 79-4, read-out: Antiproliferation EC50 in HPV negative carcinoma cells SCC-4 tongue.
Assay [4] deals with HeLa cells. The assay is described as follows: Antiproliferation assay in HeLa cells. Format: cell-based. As to conditions: Homo sapiens, Table 79-4, read-out: Antiproliferation EC50 in HPV positive carcinoma cells HeLa HPV18.
Assay [5] has as its system PHK skin keratinocytes. The experiment in a line: cells. The format is cell-based. As to conditions: Homo sapiens, Keratinocyte; Table 79-3; read-out: Antiproliferation EC50 PHK skin keratinocytes.
For assay [6], the system named is C-4 I cells. The assay is described as follows: Antiproliferation assay in C-4 I cells. The format is cell-based. To be noted: Homo sapiens, Table 79-4, read-out: Antiproliferation EC50 in HPV positive carcinoma cells C-41 HPV18.
The test system of assay [7] is SCC-9 cells. The experiment in a line: Antiproliferation assay in SCC-9 cells. Format: cell-based. To be noted: Homo sapiens, Table 79-4, read-out: Antiproliferation EC50 in HPV negative carcinoma cells SCC-9 tongue.
Assay [8] has as its system CaSki cells. The experiment in a line: Antiproliferation assay in CaSki cells. Format: cell-based. As to conditions: Homo sapiens, Ca-Ski; Table 79-4; read-out: Antiproliferation EC50 in HPV positive carcinoma cells CaSki HPV16.
For assay [9], the system named is MS751 cells. The assay is described as follows: Antiproliferation assay in MS751 cells. The format is cell-based. As to conditions: Homo sapiens, Table 79-4, read-out: Antiproliferation EC50 in HPV positive carcinoma cells MS-751 HPV18.
Assay [10] concerns CK cervical keratinocytes. The experiment in a line: cells. As to conditions: Homo sapiens, Keratinocyte; Table 79-3; read-out: Antiproliferation EC50 CK cervical keratinocytes. The format is cell-based.
The subject of assay [11] is ME-180 cells. The experiment in a line: Antiproliferation assay in ME-180 cells. The format is cell-based. As to conditions: Homo sapiens, Table 79-4, read-out: Antiproliferation EC50 in HPV positive carcinoma cells ME-180 HPV39.
The subject of assay [12] is HT-3 cells. The assay is described as follows: Antiproliferation assay in HT-3 cells. Format: cell-based. As to conditions: Homo sapiens, Table 79-4, read-out: Antiproliferation EC50 in HPV negative carcinoma cells HT-3 cervix.
Assay [13] has as its system HPV-16 SiHa cells. The format is cell-based, human. As to conditions: day 7, 0.2 μg/mL, Annexin V-Propidium iodide double staining.
The mark [14] stands for this setting: Table 79-2, 7 days, read-out: Antiproliferation EC50 SiHa cervical carcinoma (HPV16).
The mark [15] stands for this setting: Homo sapiens, SiHa, 168 h, Table 79-2, 7 days, read-out: Antiproliferation EC50 SiHa cervical carcinoma (HPV16).
The mark [16] stands for this setting: Homo sapiens, SiHa, Table 79-3, read-out: Antiproliferation EC50 SiHa cervical carcinoma (HPV16).
Setting [17] is: Homo sapiens, HEL, 168 h, Table 79-2, 7 days.

Read-outs that look alike come from different tables or passages of the source.

Turning to `C[C@@]1(CO)[C@H](O)CC[C@@]2(C)[C@H]1CC[C@H]1C[C@@H]3C[C@@]12CC[C@]3(O)CO` [Aphidicolin (+), Aphidicolin], the “Selectivity (HEL/SiHa)” value in [1] (Table 79-2) was 0.40. Further, the EC50 worked out at 856 nM in assay [1] (setting [14]) and 324 nM in assay [2] (Table 79-2, 7 days).

As to `Nc1ccn([C@@H]2O[C@H](CO)[C@@H](O)[C@@H]2O)c(=O)n1` [AraC, cytarabine], the EC50 in assay [3] is 74 nM; in assay [4] it was 174 nM; in assay [5], 147 nM; in [6], 123 nM; in assay [7], 68 nM; in assay [1] (setting [15]), 257 nM. In addition, the EC50 in [1] (setting [16]) was 257 nM; in assay [1] (Homo sapiens, SiHa, Table 79-4, read-out: Antiproliferation EC50 in HPV positive carcinoma cells SiHa HPV16) it was 257 nM; in assay [1] (Homo sapiens, six HPV positive cell lines: SiHa, CaSki, HeLa, MS751, C-4I, ME-180, read-out: Antiproliferation EC50 values, range over all cell lines), 94 to 257 nM; in assay [2] (setting [17]) it was 29 nM; in assay [8], 94 nM; in [9], 144 nM. For the same compound, the EC50 stood at 107 nM in [10], 101 nM in assay [11] and 214 nM in assay [12]. Also, the “Selectivity for SiHa cells compared with HEL cells” value (“Selectivity for SiHa cells” below) in assay [1] was “did not show such selectivity”. The “Selectivity (HEL/SiHa)” value in assay [1] (Table 79-2) is 0.113. Further, the “Selectivity (CK/SiHa)” value in [1] (Table 79-3) is recorded as 0.4. Moreover, the “Selectivity (PHK/SiHa)” value in [1] (Table 79-3) is 0.57.

Turning to `Nc1ccn(C[C@@H](CO)OCP(=O)(O)O)c(=O)n1` [Cidofovir], in assay [1] (Table 79-2), the “Selectivity (HEL/SiHa)” value is 0.3. For the same compound, the EC50 in [1] (setting [15]) came out at 84000 nM; in assay [2] (setting [17]), 28000 nM.

With `CN(C)/N=N/c1[nH]cnc1C(N)=O` [Dacarba-zine, Dacarbazine], the “Selectivity (HEL/SiHa)” value in assay [1] (Table 79-2) came to 3.98. Besides, the EC50 in assay [1] (setting [15]) stood at 7400 nM; in assay [2] (setting [17]), 29500 nM.

For `C[C@H]1O[C@@H](n2cc(F)c(=O)[nH]c2=O)[C@H](O)[C@@H]1O` [Doxifluridine], the “Selectivity (HEL/SiHa)” value in assay [1] (Table 79-2) was determined as 0.449. Also, the EC50 in assay [1] (setting [15]) was 8760 nM; in [2] (setting [17]), 3930 nM.

For the compound `COc1cccc2c1C(=O)c1c(O)c3c(c(O)c1C2=O)C[C@@](O)(C(=O)CO)C[C@@H]3O[C@H]1C[C@H](N)[C@H](O)[C@H](C)O1` [Doxorubicin], the “Selectivity (HEL/SiHa)” value in [1] (Table 79-2) was 0.43. In addition, the figures for the EC50 in assay [1] (setting [15]) and in assay [2] (setting [17]) were 9.76 nM and 4.2 nM, respectively.

As for `Cc1c2ccncc2c(C)c2c1[nH]c1ccccc12` [Ellipticine], the “Selectivity (HEL/SiHa)” value in assay [1] (Table 79-2) is 1.02. The EC50 in [1] (setting [15]) turned out to be 478 nM; in assay [2] (setting [17]), 486 nM.

As for `COc1cc([C@@H]2c3cc4c(cc3[C@@H](O[C@@H]3O[C@@H]5CO[C@@H](C)O[C@H]5[C@H](O)[C@H]3O)[C@H]3COC(=O)[C@H]23)OCO4)cc(OC)c1O` [Etoposide], in [1] (Table 79-2), the “Selectivity (HEL/SiHa)” value was found to be 0.31. The EC50 in assay [1] (setting [15]) amounted to 469 nM; in [2] (setting [17]), 144 nM.

With `COc1cc2c(c(N)c1OC)C(=O)/C(=C\c1cc(C)c(O)c(C)c1)C2` [Indanosine, Indanocine], the EC50 is 588 nM in [1] (Homo sapiens, SiHa, 168 h, read-out: Antiproliferation EC50 SiHa cervical carcinoma (HPV16)) and 159 nM in assay [2] (Homo sapiens, HEL, 168 h).

Take `O=C1c2c(O)ccc(O)c2C(=O)c2c(NCCNCCO)ccc(NCCNCCO)c21` [Mitoxantrone]: the “Selectivity (HEL/SiHa)” value in assay [1] (Table 79-2) is reported as less than 0.37. For the same compound, the EC50 is 8.67 nM in assay [1] (setting [15]) and less than 3.2 nM in assay [2] (setting [17]).

With `Nc1nc2c(ncn2CCOCP(=O)(O)O)c(=O)[nH]1` [PMEG, 9-(2-phosphonylmethoxyethyl)guanine], the “% of apoptotic cells in the culture” value in assay [13] is 1.2%. In addition, the EC50 in assay [5] came to 101 nM; in assay [1] (setting [15]), 207 nM; in [1] (setting [16]), 207 nM; in assay [2] (setting [17]) it was 861 nM; in assay [10], 501 nM. In addition, in assay [1], the “Selectivity for SiHa cells” value was “did not show such selectivity”. Further, the “Selectivity (HEL/SiHa)” value in [1] (Table 79-2) is 4.1. Also, the “Selectivity (CK/SiHa)” value in assay [1] (Table 79-3) worked out at 2.4. Also, the “Selectivity (PHK/SiHa)” value in assay [1] (Table 79-3) is 0.48.

In the case of `COc1cc([C@@H]2c3cc4c(cc3[C@H](O)[C@H]3COC(=O)[C@H]23)OCO4)cc(OC)c1OC` [Podofilox], the “Selectivity for SiHa cells” value in assay [1] was “showed no selectivity”.

On to `CC[C@]1(O)C[C@@H]2CN(CCc3c([nH]c4ccccc34)[C@@](C(=O)OC)(c3cc4c(cc3OC)N(C)[C@H]3[C@@](O)(C(=O)OC)[C@H](OC(C)=O)[C@]5(CC)C=CCN6CC[C@]43[C@@H]65)C2)C1` [Vinblastine], for which the “Selectivity (HEL/SiHa)” value in assay [1] (Table 79-2) is 0.39. In addition, the figures for the EC50 in assay [1] (setting [15]) and in assay [2] (setting [17]) were 0.68 nM and 0.27 nM, respectively.

Regarding `CC[C@]1(O)C[C@H]2CN(CCc3c([nH]c4ccccc34)[C@@](C(=O)OC)(c3cc4c(cc3OC)N(C=O)[C@H]3[C@@](O)(C(=O)OC)[C@H](OC(C)=O)[C@]5(CC)C=CCN6CC[C@]43[C@@H]65)C2)C1` [Vincristine], the “Selectivity (HEL/SiHa)” value in assay [1] (Table 79-2) is 1.55. Besides, the EC50 came out at 1.24 nM in assay [1] (setting [15]) and 1.92 nM in [2] (setting [17]).

On to `Nc1ccn([C@@H]2O[C@H](CO)[C@@H](O)C2(F)F)c(=O)n1` [gemcitabine], for which the “Selectivity for SiHa cells” value in [1] is listed as “did not show such selectivity”.

Regarding Bleomycin, in [1] (Table 79-2), the “Selectivity (HEL/SiHa)” value was 0.01. In addition, the EC50 turned out to be 3140 nM in assay [1] (setting [14]) and 20.3 nM in assay [2] (Table 79-2, 7 days).
